PMC11249646, “Small-Molecule Disruptors of the Interaction between Calcium- and Integrin-Binding Protein 1 and Integrin αIIbβ3 as Novel Antiplatelet Agents” (ACS Pharmacology & Translational Science, 2024)
Read-outs that look alike come from different tables or passages of the source.

Columns and labels:
[1] = target: T1, CIB1 and αIIb interaction (CIB1-GST : F-αIIb peptide) (Homo sapiens, UniProt Q99828); test: FP assay, 1536-well qHTS format (primary and confirmatory screen); type: binding; settings: for CONFIRMATORY SCREEN Curve Class / Curve Class (confirmatory screen): qHTS curve class
T1 construct: made in house; host or cells: BL-21 plus RIL cells (E. coli)
T1 sequence (Q99828 1-191): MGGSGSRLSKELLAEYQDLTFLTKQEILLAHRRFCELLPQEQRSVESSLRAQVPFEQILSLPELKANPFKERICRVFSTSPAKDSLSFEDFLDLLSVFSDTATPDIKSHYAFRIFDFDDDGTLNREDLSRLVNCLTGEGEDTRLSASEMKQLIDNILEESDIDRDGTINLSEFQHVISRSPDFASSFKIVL

[2] = target: T2, GST-CIB1 : F-scrambled peptide (Homo sapiens, UniProt Q99828); test: FP scrambled-peptide counter screen, 1536-well format; type: binding; settings: for COUNTERSCREEN Curve Class / Curve Class (counterscreen): qHTS curve class
T2 construct: made in house; host or cells: BL-21 plus RIL cells (E. coli)
T2 sequence (Q99828 1-191): T1 sequence (Q99828 1-191)

[3] = confirmatory screen, YES/NO call
[4] = confirmatory screen, negative sign = inhibitory curve
[5] = confirmatory screen, negative = inhibition
[6] = confirmatory screen, read-out: CONFIRMATORY SCREEN IC50
[7] = qHTS FP screen hits, Table S2, negative = inhibition
[8] = qHTS FP screen hits, Table S2, read-out: IC50
[9] = scrambled-peptide counterscreen
[10] = scrambled-peptide counterscreen, YES/NO call
[11] = confirmatory screen, read-out: IC50 [μM] (confirmatory screen)
[12] = qHTS FP screen hits, Table S2, one class per curve where COUNT > 1, negative sign = inhibitory curve
[13] = counterscreen, negative sign = inhibitory curve
[14] = counterscreen, read-out: IC50 [μM] (counterscreen)
[15] = Table S3, confirmatory screen, a negative sign marks inhibitory curves
[16] = Table S3, confirmatory screen, negative = inhibition
[17] = qHTS primary screen hits, Table S2, negative = inhibition
[18] = qHTS primary screen hits, Table S2, negative sign = inhibitory curve, several classes where COUNT > 1
[19] = qHTS primary screen hits, Table S2, read-out: IC50
[20] = Table S3, counterscreen, YES/NO call
[21] = Table S3, counterscreen, a negative sign marks inhibitory curves
[22] = Table S3, counterscreen, negative = inhibition
[23] = Table S3, counterscreen, read-out: IC50 [μM] (counterscreen)
[24] = Table S3, confirmatory screen, YES/NO call
[25] = Table S3, confirmatory screen, read-out: IC50 [μM] (confirmatory screen)

CC(C)NC(=S)N/N=C1\C(=O)Nc2ccccc21.O=C(O)C(F)(F)F [NCGC00229535-01]
CONFIRMATORY SCREEN Confirm? [1, 3]: YES | CONFIRMATORY SCREEN Curve Class [1, 4]: -1.4 | CONFIRMATORY SCREEN Efficacy (%) [1, 5]: -48% | IC50 [1, 6]: 2.8 µM | Efficacy (%) [1, 7]: -24% | IC50 [1, 8]: 12.6 µM | COUNTERSCREEN Efficacy (%) [2, 9]: -45% | COUNTERSCREEN Confirm? [2, 10]: YES | COUNTERSCREEN Curve Class [2, 9]: -1.2 | IC50 ([2]; scrambled-peptide counterscreen, read-out: COUNTERSCREEN IC50): 11.2 µM

CCN1CCN(c2ccc(Nc3ccc(-c4ccc(C(N)=O)cc4)n4ncnc34)cc2)CC1.O=C(O)C(F)(F)F [NCGC00249351-01]
Efficacy (%) (confirmatory screen) ([1]; confirmatory screen): -64% | Confirm? (confirmatory screen) ([1]; confirmatory screen, YES/NO): YES | Curve Class (confirmatory screen) [1, 4]: -2.4 | IC50 [1, 11]: 22.4 µM | Efficacy (%) [1, 7]: -39% | Curve Class [1, 12]: -2.2 | IC50 [1, 8]: 35.5 µM | Efficacy (%) (counterscreen) ([2]; counterscreen): -68% | Curve Class (counterscreen) [2, 13]: -2.2 | IC50 [2, 14]: 50.1 µM

C/C(=C\c1ccc2c(c1)OCO2)C1Nc2cccc3cccc(c23)N1 [NCGC00182904-03]
Curve Class (confirmatory screen) [1, 15]: 4 | Efficacy (%) (confirmatory screen) [1, 16]: -33% | Efficacy (%) [1, 17]: -34% | Curve Class [1, 18]: -2.4 | IC50 [1, 19]: 35.5 µM | Confirm? (counterscreen) [2, 20]: YES | Curve Class (counterscreen) [2, 21]: -1.2 | Efficacy (%) (counterscreen) [2, 22]: -77% | IC50 [2, 23]: 12.6 µM

Cc1cc(NS(=O)(=O)c2ccc(NC(=O)Cc3ccc(F)c(Cl)c3)cc2)no1.O=C(O)C(F)(F)F [NCGC00244873-01]
CONFIRMATORY SCREEN Efficacy (%) ([1]; confirmatory screen): -48% | CONFIRMATORY SCREEN Curve Class ([1]; confirmatory screen): 4 | Efficacy (%) [1, 7]: -25% | IC50 [1, 8]: 10 µM | COUNTERSCREEN Efficacy (%) ([2]; counterscreen): -17% | COUNTERSCREEN Curve Class ([2]; counterscreen): 4

O=C(O)c1cc(/N=N/c2ccc(S(=O)(=O)Nc3ccccn3)cc2)ccc1O [NCGC00090903-09]
Confirm? (confirmatory screen) [1, 24]: YES | Curve Class (confirmatory screen) [1, 15]: -1.2 | Efficacy (%) (confirmatory screen) [1, 16]: -64% | IC50 [1, 25]: 22.4 µM | Curve Class (counterscreen) [2, 21]: -2.2 | Efficacy (%) (counterscreen) [2, 22]: -61% | IC50 [2, 23]: 39.8 µM

O=C1C[C@@](c2ccc(N3CCOCC3)cc2)(c2ccsc2)NC(=O)C1Sc1ccccc1Cl (some centres unmarked) [NCGC00420796-01]
Efficacy (%) (confirmatory screen) ([1]; confirmatory screen): -47% | Confirm? (confirmatory screen) ([1]; confirmatory screen, YES/NO): YES | Curve Class (confirmatory screen) [1, 4]: -2.2 | IC50 [1, 11]: 20 µM | Efficacy (%) (counterscreen) ([2]; counterscreen): -34% | Curve Class (counterscreen) [2, 13]: -1.4 | IC50 [2, 14]: 6.3 µM

Cc1ccc(S(=O)(=O)Nc2cc3c(cc2C(=O)Nc2nc(-c4ccccc4)cs2)OCO3)cc1.O=C(O)C(F)(F)F [NCGC00263702-01]
Curve Class (confirmatory screen) [1, 15]: 4 | Efficacy (%) (confirmatory screen) [1, 16]: -44% | Efficacy (%) [1, 17]: -40% | Curve Class ([1]; qHTS primary screen hits, Table S2, negative sign = inhibitory curve): -2.2 | IC50 [1, 19]: 39.8 µM | Efficacy (%) (counterscreen) [2, 22]: 111% | IC50 [2, 23]: 44.7 µM

NC(=O)C1CCN(c2nc(-c3ccccc3N)cs2)CC1.O=C(O)C(F)(F)F [NCGC00183555-01]
Curve Class (confirmatory screen) [1, 15]: 4 | Efficacy (%) (confirmatory screen) [1, 16]: -21% | Efficacy (%) [1, 17]: -77% | Curve Class [1, 18]: -2.2 | IC50 [1, 19]: 39.8 µM | Confirm? (counterscreen) [2, 20]: YES | Curve Class (counterscreen) [2, 21]: -1.4 | Efficacy (%) (counterscreen) [2, 22]: -31% | IC50 [2, 23]: 28.2 µM

O=C(NC(c1ccco1)c1cc(Cl)c2cccnc2c1O)c1cccs1.O=C(O)C(F)(F)F (centres unmarked) [NCGC00188375-01]
Curve Class (confirmatory screen) [1, 15]: 4 | Efficacy (%) (confirmatory screen) [1, 16]: 0% | Efficacy (%) [1, 17]: -35% | Curve Class [1, 18]: -1.2 | IC50 [1, 19]: 25.1 µM | Efficacy (%) (counterscreen) [2, 22]: 81% | IC50 [2, 23]: 50.1 µM

COc1ccc(NC(=O)c2[nH]c(C)c(C(C)=O)c2C)cc1S(=O)(=O)Nc1ccccc1C#N [NCGC00348145-01]
Efficacy (%) (confirmatory screen) ([1]; confirmatory screen): -41% | Confirm? (confirmatory screen) ([1]; confirmatory screen, YES/NO): YES | Curve Class (confirmatory screen) [1, 4]: -2.2 | IC50 [1, 11]: 35.5 µM | Efficacy (%) [1, 7]: -21% | IC50 [1, 8]: 31.6 µM | Efficacy (%) (counterscreen) ([2]; counterscreen): 157% | Confirm? (counterscreen) ([2]; counterscreen, YES/NO): YES | Curve Class (counterscreen) [2, 13]: 3 | IC50 [2, 14]: 39.8 µM

CC(=O)NC(c1cccs1)c1cc(Br)c2cccnc2c1O (centres unmarked) [NCGC00183685-02]
CONFIRMATORY SCREEN Efficacy (%) ([1]; confirmatory screen): -36% | CONFIRMATORY SCREEN Curve Class ([1]; confirmatory screen): 4 | COUNTERSCREEN Efficacy (%) ([2]; counterscreen): -11% | COUNTERSCREEN Curve Class ([2]; counterscreen): 4

CCOC(=O)c1ccc(O)c2ncc(N3CCC(C(=N)N)CC3)cc12.O=C(O)C(F)(F)F [NCGC00241051-01]
Efficacy (%) (confirmatory screen) ([1]; confirmatory screen): -129% | Confirm? (confirmatory screen) ([1]; confirmatory screen, YES/NO): YES | Curve Class (confirmatory screen) [1, 4]: -1.1 | Efficacy (%) [1, 17]: -93% | Curve Class [1, 18]: -1.1 | Efficacy (%) (counterscreen) ([2]; counterscreen): -115% | Curve Class (counterscreen) [2, 13]: -1.3 | IC50 [2, 14]: 7.1 µM

CNC(=S)N/N=C1\C(=O)Nc2ccccc21.O=C(O)C(F)(F)F [NCGC00229528-01]
CONFIRMATORY SCREEN Confirm? [1, 3]: YES | CONFIRMATORY SCREEN Curve Class [1, 4]: -1.4 | CONFIRMATORY SCREEN Efficacy (%) [1, 5]: -28% | IC50 [1, 6]: 14.1 µM | Efficacy (%) [1, 17]: -26% | Curve Class [1, 18]: -1.4 | IC50 [1, 19]: 7.9 µM | COUNTERSCREEN Efficacy (%) [2, 9]: -28% | COUNTERSCREEN Confirm? [2, 10]: YES | COUNTERSCREEN Curve Class [2, 9]: 4

CNc1ccc([N+](=O)[O-])c(Nc2ccc3[nH]ncc3c2)n1 [NCGC00387499-01]
Efficacy (%) (confirmatory screen) ([1]; confirmatory screen): -53% | Confirm? (confirmatory screen) ([1]; confirmatory screen, YES/NO): YES | Curve Class (confirmatory screen) [1, 4]: -1.2 | IC50 [1, 11]: 2.8 µM | Efficacy (%) [1, 7]: -48% | Curve Class [1, 12]: -1.2 | IC50 [1, 8]: 3.5 µM | Efficacy (%) (counterscreen) ([2]; counterscreen): -36% | Curve Class (counterscreen) [2, 13]: -1.2 | IC50 [2, 14]: 4 µM

O=C(O)C(F)(F)F.Oc1cccc2cc(N3CCCC3)cnc12 [NCGC00188744-01]
Curve Class (confirmatory screen) [1, 15]: 4 | Efficacy (%) (confirmatory screen) [1, 16]: -14% | Efficacy (%) [1, 7]: -48% | Curve Class [1, 12]: -2.2 | IC50 [1, 8]: 28.2 µM | Confirm? (counterscreen) [2, 20]: YES | Curve Class (counterscreen) [2, 21]: -1.4 | Efficacy (%) (counterscreen) [2, 22]: -34% | IC50 [2, 23]: 17.8 µM

Nc1nc2c(s1)C(c1ccc(F)cc1F)CC(=O)N2 (centres unmarked) [NCGC00422010-03]
Efficacy (%) (confirmatory screen) ([1]; confirmatory screen): -39% | Confirm? (confirmatory screen) ([1]; confirmatory screen, YES/NO): YES | Curve Class (confirmatory screen) [1, 4]: -2.4 | IC50 [1, 11]: 89.1 µM | Efficacy (%) [1, 7]: -54% | Curve Class [1, 12]: -2.2 | IC50 [1, 8]: 79.4 µM | Efficacy (%) (counterscreen) ([2]; counterscreen): -16% | Confirm? (counterscreen) ([2]; counterscreen, YES/NO): YES | Curve Class (counterscreen) [2, 13]: 4

CN1CCCN(C(=O)c2cccc(-c3ccc(/C=C4/C(=O)Nc5ccc(Cl)cc54)o3)c2)CC1 [NCGC00346935-01]
Confirm? (confirmatory screen) [1, 24]: YES | Curve Class (confirmatory screen) [1, 15]: -1.3 | Efficacy (%) (confirmatory screen) [1, 16]: -102% | IC50 [1, 25]: 35.5 µM | Efficacy (%) [1, 7]: -37% | Curve Class [1, 12]: -2.2 | IC50 [1, 8]: 15.2 µM | Curve Class (counterscreen) [2, 21]: -1.1 | Efficacy (%) (counterscreen) [2, 22]: -108% | IC50 [2, 23]: 35.5 µM
